The values that follow come from patent publication US11325899B2, “Benzofurane and benzothiophene derivatives as PGE2 receptor modulators” (IDORSIA PHARMACEUTICALS LTD, priority 2017, dated 2022).

The target of one assay is T1, PTGER2 (EP2) (Homo sapiens, UniProt P43116).
T1 construct: host or cells: HEK 293 (PathHunter PTGER2 b-arrestin cell line)
Put plainly: hEP2 b-arrestin assay (PathHunter HEK 293 PTGER2 b-arrestin cells). The class given is cell-based. To be noted: antagonistic activity, beta-arrestin assay; read-out: hEP2 b-arr IC50. On the procedure:
(§1) The antagonistic activities of the compounds of formula (I) on the EP2 and EP4 receptors are determined in accordance with the following experimental method.
(§2) The assay is using the PathHunter™ HEK 293 PTGER2 and PTGER4 b-arrestin cell lines from DiscoverX. The system is based on the Enzyme Fragment Complementation Technology. Two complementing fragments of the b-galactosidase enzyme are expressed within stably transfected cells. The larger portion of b-gal, termed EA for Enzyme Acceptor, is fused to the C-terminus of b-arrestin 2. The smaller fragment, termed ProLink™ tag, is fused to PTGER2 (EP2) or PTRGER4 (EP4) at the C-terminus. Upon activation, b-arrestin is recruited which forces the interaction of ProLink and EA, allowing complementation of the two fragments of b-gal and the formation of a functional enzyme which is capable of hydrolysing the substrate and generating a chemiluminescent signal.
The HEK 293 PTGER2 b-arrestin cells (DiscoverX 93-021-4C1) are detached from culture dishes with a cell dissociation buffer (Invitrogen, 13151-014), and collected in growing medium (GM: DMEM+Glutamax-I (Invitrogen 32430)/10% FCS, 1% Penicilin/streptomycin). 5000 cells per well of a 384 well plate (white with white bottom Greiner 781080) are seeded in 20 ul per well of GM. Plate is incubated at 37° C., 5% C02 for 24 hours.
(§3) Stock solutions of test compounds are made at a concentration of 10 mM in DMSO, and serially diluted in DMSO to concentrations required for inhibition dose response curves (tested concentration range 10 μM-2 nM or 1 μM-0.2 nM).
PGE2 (Cayman 14010, stock solution: 10 mM in DMSO) is used as agonist at 5 μM final concentration, corresponding to EC80.
Five microliters of diluted compounds are transferred into the assay plate. Plate is pre-incubated 15 minutes at 37° C. Then five microliters of PGE2 (final conc. 5 μM) are transferred into the assay plate. Plate is incubated 120 minutes at 37° C.
(§4) PathHunter Glo Detection Kit components are thawed and mix according to manufacturer's instructions: 1 part Galacton Star Substrate with 5 parts Emerald II™ Solution, and 19 parts of PathHunter Cell Assay Buffer, respectively. Twelve μl of reagent are transferred to the assay plate and incubate for 1 hour at room temperature in the dark. Luminescence counts are read on a BMG Fluostar Optima reader according to manufacturer's instructions.
(§5) For each compound concentration calculate of the percentage of activity compared to DMSO control value as average±STDEV. (each concentration is measured in duplicate)
(§6) IC50 values and curves are generated with XLfit software (IDBS) using Dose-Response One Site model 203. When compounds were measured multiple times, mean values are given.

Another assay concerns the target T2, PTGER4 (EP4) (Homo sapiens, UniProt P35408).
T2 construct: host or cells: HEK 293 (PathHunter PTGER4 b-arrestin cell line)
The experiment in a line: hEP4 b-arrestin assay (PathHunter HEK 293 PTGER4 b-arrestin cells). The class given is cell-based. As to conditions: antagonistic activity, beta-arrestin assay; read-out: hEP4 b-arr IC50. On the procedure:
as §1, §2
The HEK 293 PTGER4 b-arrestin cells (DiscoverX 93-030-4C1) are detached from culture dishes with a cell dissociation buffer (Invitrogen, 13151-014), and collected in growing medium (GM: DMEM+Glutamax-I (Invitrogen 32430)/10% FCS, 1% Penicilin/streptomycin). 5000 cells per well of a 384 well plate (white with white bottom Greiner 781080) are seeded in 20 ul per well of GM. Plate is incubated at 37° C., 5% C02 for 24 hours.
as §3
PGE2 (Cayman 14010, stock solution: 100 uM in DMSO) is used as agonist at 20 nM final concentration, corresponding to EC80.
Five microliters of diluted compounds are transferred into the assay plate. Plate is pre-incubated 15 minutes at 37° C. Then five microliters of PGE2 (final conc. 20 nM) are transferred into the assay plate. Plate is incubated 120 minutes at 37° C.
as §4, §5, §6

T2 sequence (P35408 whole entry): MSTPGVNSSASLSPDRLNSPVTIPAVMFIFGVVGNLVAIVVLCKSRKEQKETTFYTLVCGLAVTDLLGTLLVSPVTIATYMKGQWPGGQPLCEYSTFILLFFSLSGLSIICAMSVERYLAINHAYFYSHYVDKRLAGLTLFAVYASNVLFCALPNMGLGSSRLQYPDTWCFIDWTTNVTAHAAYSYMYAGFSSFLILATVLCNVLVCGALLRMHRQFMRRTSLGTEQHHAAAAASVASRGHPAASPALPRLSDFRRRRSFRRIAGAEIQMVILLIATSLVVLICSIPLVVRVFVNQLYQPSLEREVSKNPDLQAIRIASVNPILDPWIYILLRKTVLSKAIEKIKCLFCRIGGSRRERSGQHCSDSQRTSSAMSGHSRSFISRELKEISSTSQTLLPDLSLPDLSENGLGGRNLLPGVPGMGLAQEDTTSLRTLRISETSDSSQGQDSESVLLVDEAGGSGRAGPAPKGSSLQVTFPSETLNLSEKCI
T1 sequence (P43116 whole entry): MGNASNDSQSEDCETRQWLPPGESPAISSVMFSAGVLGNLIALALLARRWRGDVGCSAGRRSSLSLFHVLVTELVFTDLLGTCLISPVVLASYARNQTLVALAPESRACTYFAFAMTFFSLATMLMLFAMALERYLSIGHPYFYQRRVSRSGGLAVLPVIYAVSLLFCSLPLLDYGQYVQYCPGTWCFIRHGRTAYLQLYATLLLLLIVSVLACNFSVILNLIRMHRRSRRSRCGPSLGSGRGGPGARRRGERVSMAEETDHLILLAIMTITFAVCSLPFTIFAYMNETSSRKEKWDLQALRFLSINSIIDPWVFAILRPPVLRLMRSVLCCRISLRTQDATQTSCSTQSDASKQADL

With `CCOc1cc(-c2cc(NCCc3c(C)sc4c(C)cc(F)cc34)ncn2)ccc1C1(C(=O)O)CC1` [Example 215, 1-(2-Ethoxy-4-{6-[2-(5-fluoro-2,7-dimethyl-benzo[b]thiophen-3-yl)-ethylamino]-pyrimidin-4-yl}-phenyl)-cyclopropanecarboxylic acid], the IC50 at PTGER2 (EP2) was determined as 143 nM; on PTGER4 (EP4) it was 151 nM.
For `CCOc1c(CC(=O)O)ccc(-c2cc(NCCc3c(C)sc4c(C)cc(F)cc34)ncn2)c1F` [Example 216, (2-Ethoxy-3-fluoro-4-{6-[2-(5-fluoro-2,7-dimethyl-benzo[b]thiophen-3-yl)-ethylamino]-pyrimidin-4-yl}-phenyl)-acetic acid], the concentration for half-maximal inhibition (IC50) was found to be 41 nM at PTGER2 (EP2) and 234 nM at PTGER4 (EP4).
The corresponding values for `CCOc1cc(-c2cc(NCCc3c(C)sc4c(C)cc(F)cc34)ncn2)c(F)cc1CC(=O)O` [Example 217, (2-Ethoxy-5-fluoro-4-{6-[2-(5-fluoro-2,7-dimethyl-benzo[b]thiophen-3-yl)-ethylamino]-pyrimidin-4-yl}-phenyl)-acetic acid] are 126 nM and 847 nM.
The corresponding values for `CCCc1cc(-c2cc(NCCc3c(C)sc4c(C)cc(F)cc34)ncn2)ccc1C1(C(=O)O)CC1` [Example 218, 1-(4-{6-[2-(5-Fluoro-2,7-dimethyl-benzo[b]thiophen-3-yl)-ethylamino]-pyrimidin-4-yl}-2-propyl-phenyl)-cyclopropanecarboxylic acid] are 95 nM and 143 nM.
In the case of `CCCc1cc(-c2cc(NCCc3c(C)sc4c(C)cc(F)cc34)ncn2)sc1CC(=O)O` [Example 219, (5-{6-[2-(5-Fluoro-2,7-dimethyl-benzo[b]thiophen-3-yl)-ethylamino]-pyrimidin-4-yl}-3-propyl-thiophen-2-yl)-acetic acid], the IC50 at PTGER2 (EP2) is 41 nM; on PTGER4 (EP4), 211 nM.
The corresponding values for `Cc1sc2c(C)cc(F)cc2c1CCNc1cc(-c2cc(OC(F)F)c(CC(=O)O)s2)ncn1` [Example 220, (3-Difluoromethoxy-5-{6-[2-(5-fluoro-2,7-dimethyl-benzo[b]thiophen-3-yl)-ethylamino]-pyrimidin-4-yl}-thiophen-2-yl)-acetic acid] are 44 nM and 407 nM.
Regarding `Cc1sc2c(C)cc(F)cc2c1CCNc1cc(-c2cc3cccc(C(=O)O)c3[nH]2)ncn1` [Example 221, 2-{6-[2-(5-Fluoro-2,7-dimethyl-benzo[b]thiophen-3-yl)-ethylamino]-pyrimidin-4-yl}-1H-indole-7-carboxylic acid], the concentration for half-maximal inhibition (IC50) at PTGER2 (EP2) is 24 nM; at PTGER4 (EP4), 908 nM.
For `Cc1sc2c(C)cc(F)cc2c1CCNc1cc(-c2cc3cccc(C(=O)O)c3s2)ncn1` [Example 222, 2-{6-[2-(5-Fluoro-2,7-dimethyl-benzo[b]thiophen-3-yl)-ethylamino]-pyrimidin-4-yl}-benzo[b]thiophene-7-carboxylic acid], the results for the half-inhibitory concentration (IC50) at PTGER2 (EP2) and on PTGER4 (EP4) were 14 nM and 453 nM, respectively.
`COc1cc(-c2cc(NCCc3c(C)sc4c(C)cc(F)cc34)ncn2)ccc1CCC(=O)O` [Example 223, 3-(4-{6-[2-(5-Fluoro-2,7-dimethyl-benzo[b]thiophen-3-yl)-ethylamino]-pyrimidin-4-yl}-2-methoxy-phenyl)-propionic acid]: the figures for the IC50 on PTGER2 (EP2) and at PTGER4 (EP4) were 35 nM and 487 nM, respectively.
In the case of “(4-{6-[2-(2-Cyano-benzo[b]thiophen-3-yl)-ethylamino]-pyrimidin-4-yl}-2-ethoxy-phenyl)-acetic acid [Example 175]”, the figures for the IC50 at PTGER2 (EP2) and on PTGER4 (EP4) were 89 nM and 492 nM, respectively.

What is called IC50 is the concentration at which inhibition is half-maximal.
